Positions of bridges follow the written chain, without caps; N, C: chain ends. No end group written: not given here.
Experiments:
[1] = tested on: rASIC1a: rASIC1b chimera C92; test: TEVC oocytes, rASIC1a: rASIC1b chimera C92; format: cell-based, rat; conditions: conditioning pH 7.45, stimulating pH 5
Procedure: (§1) Two-electrode voltage-clamp (TEVC) experiments using Xenopus laevis oocytes were conducted as previously described. Briefly, oocytes were surgically removed from anaesthetised female frogs, then treated with collagenase (~ 1 mg/ml, Sigma type I) for 2 h under agitation at room temperature. cRNAs were synthesised using a mMessage mMachine T7 or SP6 transcription kit (Thermo Fisher Scientific Australia Pty Ltd, Scoresby, VIC, Australia) and injected into healthy stage V–VI oocytes at 0.2–20 ng per cell. […] Membrane currents were recorded 2–7 days after cRNA-injection under voltage-clamp at -60 mV (Axon Axoclamp 900 A, Molecular Devices, CA, USA) using two standard glass microelectrodes of 0.5–1 MΩ resistance when filled with 3 M KCl solution. […]
(§2) Specific to this work, the standard protocol was for oocytes to be conditioned at pH 7.45 and channels stimulated every 60 s using a 5 s pH 5 or 6 application, unless stated otherwise. […] Activation curves were determined by conditioning oocytes at pH 8 (Fig. 2e − g; and Fig. 5a and b) or 7.45 (Fig. 6; and Supplementary Fig. 2d and c) for 55 s and applying low pH stimuli from 7.25 to 5.0 for 5 s. Steady-state desensitisation (SSD) was determined by applying conditioning solutions of pH values from 8 to 6 for 115 s prior to stimulation by a pH drop to 5 for 5 s. […] Control pH-dependence curves were determined in the absence of any Ma-3. […]

[2] = target: T1, rASIC1b C208Q/N324K (CN/QK) (Rattus norvegicus, UniProt P55926, C208Q/N291K); test: TEVC oocytes, rASIC1b double mutant CN/QK; format: cell-based
T1 construct: expressed in transfected cells; host or cells: Xenopus laevis oocytes injected with cRNA
T1 sequence (P55926 1-559 isoform P55926-3 C208Q/N324K): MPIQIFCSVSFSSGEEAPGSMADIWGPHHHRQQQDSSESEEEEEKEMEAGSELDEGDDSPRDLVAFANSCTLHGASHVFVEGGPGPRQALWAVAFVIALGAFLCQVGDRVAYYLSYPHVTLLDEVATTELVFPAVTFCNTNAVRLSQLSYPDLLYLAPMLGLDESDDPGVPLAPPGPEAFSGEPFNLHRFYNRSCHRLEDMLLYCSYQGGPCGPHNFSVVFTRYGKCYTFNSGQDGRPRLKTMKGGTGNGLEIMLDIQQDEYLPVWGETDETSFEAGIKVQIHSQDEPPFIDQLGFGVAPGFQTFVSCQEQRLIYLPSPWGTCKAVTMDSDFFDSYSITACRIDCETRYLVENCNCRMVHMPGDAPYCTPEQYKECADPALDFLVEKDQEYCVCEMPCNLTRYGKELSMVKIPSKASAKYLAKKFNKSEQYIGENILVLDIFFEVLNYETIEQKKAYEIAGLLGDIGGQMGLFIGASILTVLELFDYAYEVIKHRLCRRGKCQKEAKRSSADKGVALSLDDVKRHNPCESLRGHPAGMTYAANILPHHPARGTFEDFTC
Procedure: as §1, §2

“H-SLKCYQHGKVVTCHRDMKFCYHNIGMPFRNLKLILQGCSSSCSETENNKCCSTDRCNK (disulfide 4-20, 13-38, 42-50, 51-56 (inferred)) [Ma-3, mambalgin-3]” was tested, and the “activity of 300 nM Ma-3” value [1] was “only partially inhibited”, the “pH50 of activation in presence of Ma-3” value ([2]; 300 nM Ma-3, conditioning pH 7.45, Hill fit, n = 5–6) was 6.29 and the “Hill slope (95% CI)” value ([2]; conditioning pH 7.45, pH 6 evoked currents, potentiation, 95% CI) was 0.69–2.48.

Source: PMC11335189, “Revealing molecular determinants governing mambalgin-3 pharmacology at acid-sensing ion channel 1 variants” (Cellular and Molecular Life Sciences: CMLS, 2024)
